What follows are compounds tested against T1, human neuropeptide Y5 receptor (Homo sapiens, UniProt Q15761) (assay: NPY5 HTS centrifugation assay: competition with 125I-PYY for binding to membranes of NPY5-transfected HEK-293 cells). Details: 3 μM test compound; inhibition of 125I-PYY binding.
T1 construct: expressed in transfected cells; host or cells: HEK-293, stably transfected, G-418 selected; membranes
T1 sequence (Q15761 1-445): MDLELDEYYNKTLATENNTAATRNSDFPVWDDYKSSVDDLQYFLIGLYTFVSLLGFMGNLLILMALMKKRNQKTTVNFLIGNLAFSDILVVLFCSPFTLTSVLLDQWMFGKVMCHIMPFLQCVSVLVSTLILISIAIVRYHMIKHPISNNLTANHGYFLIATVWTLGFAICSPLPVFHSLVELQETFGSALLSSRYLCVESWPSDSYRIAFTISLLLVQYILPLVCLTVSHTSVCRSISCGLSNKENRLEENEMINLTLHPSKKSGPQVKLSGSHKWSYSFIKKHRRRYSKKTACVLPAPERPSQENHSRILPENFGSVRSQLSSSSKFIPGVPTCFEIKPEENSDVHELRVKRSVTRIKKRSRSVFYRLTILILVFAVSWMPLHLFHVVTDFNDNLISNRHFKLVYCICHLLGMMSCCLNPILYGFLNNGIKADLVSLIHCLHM
Experimental: NPY5 HTS Centrifugation Assay
The compounds described in this invention were evaluated for binding to the human neuropeptide Y5 receptor.
The human NPY5 receptor cDNA (Genbank Accession number U66275) was inserted into the vector pClneo (Invitrogen) and transfected into human embryonic kidney cells (HEK-293) via Calcium phosphate method (Cullen 1987). Stably transfected cells were selected with G-418 (600 ug/mL). Stably transfected cells served as the source for the membranes for the NPY5 receptor binding assay.
NPY5-transfected HEK293 cells were grown to confluence in 150 cm^2 culture dishes. Cells were washed once with phosphate-buffered saline (Gibco Cat# 14040-133). Cells were then incubated in phosphate-buffered saline without Calcium and without Magnesium, supplemented with 2 mM EDTA. Cells were incubated for 10 minutes at room temperature and the cells were collected by repetitive pipetting. Cells were formed into pellets and frozen at −80 until needed. Frozen pellets were homogenized with a polytron at full speed for 12 seconds in a homogenization buffer (20 mM Tris HCl, 5 mM EDTA, pH 7.4). Homogenates were centrifuged for 5 minutes at 4° C. at 200 g. Supernatants were transferred to corex tubes and centrifuged for 25 minutes at 28,000 g. Pellets were re-suspended in Binding (20 mM HEPES, 10 mM NaCl, 0.22 mM KH2PO4, 1.3 mM CaCl2, 0.8 mM MgSO4, pH 7.4). Membranes were kept on ice until use.
A competition binding assay, known to those skilled in the art, was used in which the test compounds (aminopyrazoles of formula (I) compete with ^1251I-PYY for binding to cell membranes. In simple terms, less ^125I-PYY bound to the membranes implies that the test compound is a good inhibitor (competitor). Bound ^1251I-PYY is determined by centrifugation the membranes, aspirating supernatant, washing away residual ^125I-PYY and subsequently counting the bound sample in a γ-counter.
Procedure for Radioligand Binding Assay
Compounds to be tested were prepared as 10× stocks in binding buffer and added first to assay tubes (RIA vials, Sarstedt). Twenty (20) μL of each 10× compound stock was pipetted into vials and 80 μL of ^125I-PYY (NEN catalog number NEX240), which had been diluted to a concentration of 200 pM in 0.25% BSA in binding buffer, was added to the compound tubes (final concentration of ^125I-PYY is 80 pM). To each tube was added 100 μL of membranes and the mixture was agitated by pipetting 2 times. Samples were incubated for 1 hr at room temperature. Aluminum cast plates (Sarstedt) containing the vials were centrifuged 10 minutes at 3200 rpm in a Sorvall RT6000. Supernatant was then aspirated. To each vial was added 400 μL PBS and the vial was then aspirated again. Vials were put in carrier polypropylene 12×75 tube and counted in gamma counter (Packard). Non-specific binding was determined in the presence of 300 nM NPY. Percent inhibition of ^125I-PYY binding was calculated by subtracting non-specific binding from the test samples (compounds of formula (I)), taking these counts and dividing by total binding, and multiplying by 100. Inhibitory concentration values (IC50) of compounds that show appreciable inhibition of ^125I-PYY binding were calculated by obtaining percent inhibition of ^125I-PYY binding values at different concentrations of the test compound, and using a graphing program such as GraphPad Prism (San Diego, Calif.) to calculate the concentration of test compound that inhibits fifty-percent of ^125I-PYY binding (Table 2). These operations are known to those skilled in the art.
In the case of O=C(Nc1ccc(F)cc1)c1ccc(-c2cc(NS(=O)(=O)c3ccccc3)n(-c3ccccc3)n2)cc1 [Cmpd 5], the “% Inh NPY5 @ 3 μM” value is reported as 0.00%.
With Cc1ccc(NC(=O)c2ccc(-c3cc(NS(=O)(=O)c4ccccc4)n(-c4ccccc4)n3)cc2)cc1 [Cmpd 6] the “% Inh NPY5 @ 3 μM” value was 0.00%.
For COC(=O)c1ccc(-c2cc(N)n(-c3ccccc3)n2)cc1 [Cmpd 7], the “% Inh NPY5 @ 3 μM” value was 13.00%.
In the case of COC(=O)c1ccc(-c2cc(N(S(=O)(=O)c3ccccc3)S(=O)(=O)c3ccccc3)n(-c3ccccc3)n2)cc1 [Cmpd 8], the “% Inh NPY5 @ 3 μM” value is reported as 0%.
In the case of O=C(O)c1ccc(-c2cc(NS(=O)(=O)c3ccccc3)n(-c3ccccc3)n2)cc1 [Cmpd 9], the “% Inh NPY5 @ 3 μM” value is reported as 0%.
With O=C(NCc1ccccc1)c1ccc(-c2cc(NS(=O)(=O)c3ccccc3)n(-c3ccccc3)n2)cc1 [Cmpd 10] the “% Inh NPY5 @ 3 μM” value was 19.00%.
O=C(Nc1cccc2ccccc12)c1ccc(-c2cc(NS(=O)(=O)c3ccccc3)n(-c3ccccc3)n2)cc1 [Cmpd 11] was tested, and the “% Inh NPY5 @ 3 μM” value was 14.00%.
For O=C(Nc1ccc2ccccc2c1)c1ccc(-c2cc(NS(=O)(=O)c3ccccc3)n(-c3ccccc3)n2)cc1 [Cmpd 12], the “% Inh NPY5 @ 3 μM” value was 2.00%.
In the case of O=C(c1ccc(-c2cc(NS(=O)(=O)c3ccccc3)n(-c3ccccc3)n2)cc1)N1CCc2ccccc2C1 [Cmpd 13], the “% Inh NPY5 @ 3 μM” value is reported as 12.00%.
For Cc1ccc(-n2nc(-c3ccc(C(=O)Nc4ccccc4)cc3)cc2NS(=O)(=O)c2ccc(C)cc2)cc1 [Cmpd 15], the “% Inh NPY5 @ 3 μM” value was 4.00%.
In the case of Cc1ccc(-n2nc(-c3ccc(C(=O)Nc4ccc(F)cc4)cc3)cc2NS(=O)(=O)c2ccc(C)cc2)cc1 [Cmpd 16], the “% Inh NPY5 @ 3 μM” value is reported as 1.00%.
Cc1ccc(NC(=O)c2ccc(-c3cc(NS(=O)(=O)c4ccc(C)cc4)n(-c4ccc(C)cc4)n3)cc2)cc1 [Cmpd 17] was tested, and the “% Inh NPY5 @ 3 μM” value was 6.00%.
With COC(=O)c1ccc(-c2cc(NS(=O)(=O)c3ccccc3)n(-c3ccccc3)n2)cc1 [Cmpd 18] the “% Inh NPY5 @ 3 μM” value was 2.00%.
With COC(=O)c1ccc(-c2cc(N)n(-c3ccc(C)cc3)n2)cc1 [Cmpd 19] the “% Inh NPY5 @ 3 μM” value was 2.00%.
In the case of COC(=O)c1ccc(-c2cc(N(S(=O)(=O)c3ccc(C)cc3)S(=O)(=O)c3ccc(C)cc3)n(-c3ccc(C)cc3)n2)cc1 [Cmpd 20], the “% Inh NPY5 @ 3 μM” value is reported as 0.00%.
For Cc1ccc(-n2nc(-c3ccc(C(=O)O)cc3)cc2NS(=O)(=O)c2ccc(C)cc2)cc1 [Cmpd 21], the “% Inh NPY5 @ 3 μM” value was 16.00%.
In the case of Cc1ccc(-n2nc(-c3ccc(N(S(=O)(=O)c4cccc(C(F)(F)F)c4)S(=O)(=O)c4cccc(C(F)(F)F)c4)cc3)cc2N)cc1 [Cmpd 26], the “% Inh NPY5 @ 3 μM” value is reported as 16.00%.
In the case of Cc1ccc(-n2nc(-c3ccc(N(S(=O)(=O)c4ccc5ccccc5c4)S(=O)(=O)c4ccc5ccccc5c4)cc3)cc2N)cc1 [Cmpd 27], the “% Inh NPY5 @ 3 μM” value is reported as 0.00%.
With CC(=O)Nc1ccc(S(=O)(=O)N(c2ccc(-c3cc(N)n(-c4ccc(C)cc4)n3)cc2)S(=O)(=O)c2ccc(NC(C)=O)cc2)cc1 [Cmpd 28] the “% Inh NPY5 @ 3 μM” value was 21.00%.
For Cc1ccc(-n2nc(-c3ccc(N(S(=O)(=O)c4ccc(OC(F)(F)F)cc4)S(=O)(=O)c4ccc(OC(F)(F)F)cc4)cc3)cc2N)cc1 [Cmpd 29], the “% Inh NPY5 @ 3 μM” value was 16.00%.
Cc1ccc(-n2nc(-c3ccc(C(=O)O)cc3)cc2N)cc1 [Cmpd 32] was tested, and the “% Inh NPY5 @ 3 μM” value was 0.00%.
In the case of Cc1ccc(NC(=O)c2ccc(-c3cc(N)n(-c4ccc(C)cc4)n3)cc2)cc1 [Cmpd 33], the “% Inh NPY5 @ 3 μM” value is reported as 0.00%.
In the case of Cc1ccc(-n2nc(-c3ccc(N(S(=O)(=O)c4cccc5ccccc45)S(=O)(=O)c4cccc5ccccc45)cc3)cc2N)cc1 [Cmpd 35], the “% Inh NPY5 @ 3 μM” value is reported as 29.00%.
Cc1ccc(-n2nc(-c3ccc(N(S(=O)(=O)c4cc(C(F)(F)F)cc(C(F)(F)F)c4)S(=O)(=O)c4cc(C(F)(F)F)cc(C(F)(F)F)c4)cc3)cc2N)cc1 [Cmpd 40] was tested, and the “% Inh NPY5 @ 3 μM” value was 16.00%.
For Cc1ccc(-n2nc(-c3ccc(NS(=O)(=O)c4cc(C(F)(F)F)cc(C(F)(F)F)c4)cc3)cc2N)cc1 [Cmpd 41], the “% Inh NPY5 @ 3 μM” value was 10.00%.
For Cc1ccc(-n2nc(-c3ccc(NS(=O)(=O)c4cccc5cccnc45)cc3)cc2N)cc1 [Cmpd 43], the “% Inh NPY5 @ 3 μM” value was 62.00%.
With Cc1ccc(-n2nc(-c3ccc(NS(=O)(=O)c4cccc5ccccc45)cc3)cc2N)cc1 [Cmpd 44] the “% Inh NPY5 @ 3 μM” value was 72.00%.
Cc1ccc(-n2nc(-c3ccc(N(S(=O)(=O)c4ccc(C(F)(F)F)cc4)S(=O)(=O)c4ccc(C(F)(F)F)cc4)cc3)cc2N)cc1 [Cmpd 46] was tested, and the “% Inh NPY5 @ 3 μM” value was 21.00%.

Same assay, conditions: 3 μM test compound; inhibition of 125I-PYY binding; read-out: % Inh NPY5 @ 3 μM
Compound O=C(Nc1ccccc1)c1ccc(-c2cc(NS(=O)(=O)c3ccccc3)n(-c3ccccc3)n2)cc1 [Cmpd 4, N-Phenyl-4-[1-phenyl-5-[(phenylsulfonyl)amino]-1H-pyrazol-3-yl]benzamide] has an inhibition at 3 µM of 0%.
Work on COc1ccc(S(=O)(=O)Nc2ccc(-c3cc(N)n(-c4ccc(C)cc4)n3)cc2)cc1 [Cmpd 36] yielded an inhibition at 3 µM of 100%.
With Cc1ccc(-n2nc(-c3ccc(NS(=O)(=O)c4ccccc4)cc3)cc2N)cc1 [Cmpd 37] the inhibition at 3 µM was 97%.
In the case of Cc1ccc(-n2nc(-c3ccc(NS(=O)(=O)c4ccc(F)cc4)cc3)cc2N)cc1 [Cmpd 38], the inhibition at 3 µM is reported as 98%.
With Cc1ccc(-n2nc(-c3ccc(NS(=O)(=O)c4cccc(C(F)(F)F)c4)cc3)cc2N)cc1 [Cmpd 39] the inhibition at 3 µM was 95%.
With Cc1ccc(-n2nc(-c3ccc(NS(=O)(=O)c4ccc(OC(F)(F)F)cc4)cc3)cc2N)cc1 [Cmpd 42] the inhibition at 3 µM was 94%.
Compound Cc1ccc(-n2nc(-c3ccc(NS(=O)(=O)c4ccc5ccccc5c4)cc3)cc2N)cc1 [Cmpd 45] has an inhibition at 3 µM of 90%.
For Cc1ccc(-n2nc(-c3ccc(NS(=O)(=O)c4ccc(C(F)(F)F)cc4)cc3)cc2N)cc1 [Cmpd 47], the inhibition at 3 µM was 82%.
With COc1ccc(S(=O)(=O)Nc2ccc(-c3cc(N)n(-c4ccc(C)cc4)n3)cc2)cc1OC [Cmpd 48] the inhibition at 3 µM was 76%.

Same assay, conditions: 30 μM test compound (stated in cell); inhibition of 125I-PYY binding
In the case of O=C(c1ccc(-c2cc(NS(=O)(=O)c3ccccc3)n(-c3ccccc3)n2)cc1)N1CCCc2ccccc21 [Cmpd 14], the “% Inh NPY5 @ 30 μM” value is reported as “(26.00 @ %”.

Same assay, conditions: inhibition of 125I-PYY binding; values in nM; read-out: IC50 hNPY5
Cc1ccc(S(=O)(=O)Nc2ccc(-c3cc(NS(=O)(=O)c4ccc(C)cc4)n(-c4ccccc4C)n3)cc2)cc1 [Cmpd 1] showed an IC50 of 200 nM.
Cc1ccc(-n2nc(-c3ccc(N(S(=O)(=O)c4ccccc4)S(=O)(=O)c4ccccc4)cc3)cc2N)cc1 [Cmpd 22, N-[4-[5-amino-1(4-methylphenyl)-1H-pyrazol-3-yl]phenyl]-N-(phenylsulfonyl)-benzenesulfonamide] showed an IC50 of 514 nM.
Cc1ccc(-n2nc(-c3ccc(NS(=O)(=O)c4ccc(C)cc4)cc3)cc2N)cc1 [Cmpd 31] gave an IC50 of 28 nM.
For COc1ccc(S(=O)(=O)Nc2ccc(-c3cc(N)n(-c4ccc(C)cc4)n3)cc2)cc1 [Cmpd 36], the IC50 was 15 nM.
With Cc1ccc(-n2nc(-c3ccc(NS(=O)(=O)c4ccccc4)cc3)cc2N)cc1 [Cmpd 37] the IC50 was 25 nM.
Cc1ccc(-n2nc(-c3ccc(NS(=O)(=O)c4ccc(F)cc4)cc3)cc2N)cc1 [Cmpd 38] showed an IC50 of 29 nM.
Compound Cc1ccc(-n2nc(-c3ccc(NS(=O)(=O)c4cccc(C(F)(F)F)c4)cc3)cc2N)cc1 [Cmpd 39] has an IC50 of 31 nM.
In the case of Cc1ccc(-n2nc(-c3ccc(NS(=O)(=O)c4ccc(OC(F)(F)F)cc4)cc3)cc2N)cc1 [Cmpd 42], the IC50 is reported as 67 nM.
Cc1ccc(-n2nc(-c3ccc(NS(=O)(=O)c4ccc5ccccc5c4)cc3)cc2N)cc1 [Cmpd 45] showed an IC50 of 208 nM.
Work on Cc1ccc(-n2nc(-c3ccc(NS(=O)(=O)c4ccc(C(F)(F)F)cc4)cc3)cc2N)cc1 [Cmpd 47] yielded an IC50 of 63 nM.
With COc1ccc(S(=O)(=O)Nc2ccc(-c3cc(N)n(-c4ccc(C)cc4)n3)cc2)cc1OC [Cmpd 48] the IC50 was 839 nM.
COc1ccc(S(=O)(=O)Nc2ccc(-c3cc(N)n(-c4cccc5ccccc45)n3)cc2)cc1 [Cmpd 49] was tested, and the IC50 was 48 nM.
For Cc1ccc(-n2nc(-c3ccc(NS(=O)(=O)c4ccc(Br)cc4)cc3)cc2N)cc1 [Cmpd 50], the IC50 was 58 nM.
For Cc1ccc(-n2nc(-c3ccc(NS(=O)(=O)c4ccc([N+](=O)[O-])cc4)cc3)cc2N)cc1 [Cmpd 51], the IC50 was 79 nM.
For Cc1ccc(-n2nc(-c3ccc(NS(=O)(=O)c4ccc(N)cc4)cc3)cc2N)cc1 [Cmpd 52], the IC50 was 74 nM.

— patent US6531478B2, “Amino pyrazole derivatives useful for the treatment of obesity and other disorders” (priority 2000, dated 2003)
